Like-named read-outs stand apart in the source and are kept apart here.
Columns and labels:
[1] = tested on: rat; assay: forced swimming test (struggling, floating, swimming); format: in vivo; details: 3 doses: 30 minutes after the pre-test, 5 hours and 30 minutes before the test
Procedure: The compounds were administered in 3 doses: 30 minutes after the pre-test, 5 hours and 30 minutes before the test.

[2] = tested on: APPs produced by α-secretase in neuroblastoma cell line (SH-SY5Y); assay: release of APPs produced by α-secretase into the culture medium of SH-SY5Y cells; format: cell-based
[3] = 10 μM, SH-SY5Y culture medium, controls = 100

## CC(=O)OC1=C(CCC(C)C)C(=O)[C@@]2(CCC(C)C)C[C@H](CCC(C)C)[C@@](C)(CCCC(C)C)[C@]1(C(=O)C(C)C)C2=O [Acetyloctahydrohyperforin, acetyloctahydrohyperforin]
[1]; 6.25 mg/Kg
  Floating: 68.4 ± 5.7 s
  Struggling: 73.9 ± 5.9 s
  Swimming: 171.9 ± 11.4 s
[2]; [3]
  APPs %: 954%

## dodecahydrohyperforin
[1]; 6.25 mg/Kg
  Floating: 55.1 ± 6.2 s
  Struggling: 62.13 ± 5.1 s
  Swimming: 169.5 ± 10.1 s
[2]; [3]
  APPs %: 879%

## CC(C)=CCC[C@]1(C)[C@@H](CC=C(C)C)C[C@@]2(CC=C(C)C)C(=O)[C@]1(C(=O)C(C)C)C(=O)C(CC=C(C)C)=C2O [Hyperforin]
[1]; 6.25 mg/Kg
  Floating: 60.4 ± 7.3 s
  Struggling: 30.4 ± 4.6 s
  Swimming: 99.3 ± 10.6 s
[2]
  APPs %: 296%

## octahydrohyperforin lithium salt
[1]; 6.25 mg/Kg
  Floating: 59.5 ± 11.3 s
  Struggling: 63.1 ± 5.8 s
  Swimming: 177.4 ± 14.9 s
[2]; [3]
  APPs %: 1383%

## tetrahydrohyperforin
[1]; 6.25 mg/Kg
  Floating: 68.4 ± 7.6 s
  Struggling: 51.4 ± 4.1 s
  Swimming: 193.4 ± 13.2 s
[2]; [3]
  APPs %: 926%

## CNCCCN1c2ccccc2CCc2ccccc21 [Desipramin, reference compound]
[1]; 10 mg/Kg
  Floating: 53.0 ± 9.2 s
  Struggling: 148.3 ± 12.6 s
  Swimming: 98.8 ± 7.9 s
